# Results published in US20090074815A1, “Immunomodulator Compounds as Vaccine Enhancers” (SCICLONE PHARMACEUTICALS, INC., priority 2005, published 2009).
# Like-named read-outs stand apart in the source and are kept apart here.
# System: IL-10 production by OvA-stimulated splenocytes
# Experiment: OvA-stimulated production of IL-10 by splenocytes of OvA-immunized mice
# Conditions: for activity at 0.0001 mg/kg / activity at 0.001 mg/kg / activity at 0.01 mg/kg: Mus musculus, Splenocyte, po; for activity at 0.01 mg/kg: 10.0 μg/kg per os; for Production of IL-10 by splenocytes / Production of IL-10 by splenocytes, % (% of control): OvA/Alum
# Description: The OvA was administered subcutaneously to the crest in a volume of 200 μl. Mice were immunized on day 1 with OvA in complete Freund's adjuvant (CFA; Sigma) and on day 15 with the antigen in incomplete Freund's adjuvant (IFA; Sigma). The immune response was analyzed on day 29. Mice were also immunized with 10 μg/mouse of OvA using Alum as an adjuvant.
# Thymuses and spleens from mice of each treatment group were pooled, and then minced with scissors. The minced tissues were suspended in sterile PBS to form cell suspensions, filtered through a double gauze layer and centrifuged. Cells were washed twice with PBS, re-suspended in RPMI-1640 (Sigma) with 2.0 mM of L-glutamine, 50 μM of mercaptoethanol, and 10 μg/ml of gentamycin (complete medium); and cell counts were made. (The splenocyte suspension was washed with a 0.86% solution of NH4Cl to pre-lyse erthrocytes.)
# Assessment of Mitogen- and Antigen-Induced Production of Cytokines: Thymic cells (1×10^6/well) in complete medium with 2% FCS were stimulated with ConA (0, 1, and 2 μg/ml). Splenocytes (1×10^6/well) in complete medium with 5% FCS were stimulated with ConA (0, 1, and 5 μg/ml) and with OvA (0-100 μg/ml). […] Supernatants from OvA-stimulated cultures were collected after 72 hours. Supernatants from both cultures were frozen, and kept at 20° C. Concentrations of IL-2, IL-4, IL-10, IL-12R40 and IFNγ in the supernatants were determined by solid-phase EIA with EIA Expansion Kits, available from BD Biosciences (formerly Pharmingen), in accordance with the manufacturer's instructions.
structure (smiles),measurement,setting,value
"N[C@H](CCC(=O)N[C@@H](Cc1c[nH]c2ccccc12)C(=O)O)C(=O)O [SCV-07, γ-D-glutamyl-L-tryptophan]",activity at 0.0001 mg/kg,"read-out: Production of IL-10 by splenocytes, % (% of control), OvA/Alum, 0.1 μg/kg per os, OvA 0 μg/ml",100%
same,activity at 0.0001 mg/kg,"read-out: Production of IL-10 by splenocytes, % (% of control), OvA/Alum, 0.1 μg/kg per os, OvA 10 μg/ml",118%
same,activity at 0.0001 mg/kg,"read-out: Production of IL-10 by splenocytes, % (% of control), OvA/Alum, 0.1 μg/kg per os, OvA 25 μg/ml",105%
same,activity at 0.0001 mg/kg,"read-out: Production of IL-10 by splenocytes, % (% of control), OvA/Alum, 0.1 μg/kg per os, OvA 50 μg/ml",132%
same,activity at 0.0001 mg/kg,"read-out: Production of IL-10 by splenocytes, % (% of control), OvA/Alum, 0.1 μg/kg per os, OvA 100 μg/ml",129%
same,activity at 0.001 mg/kg,"read-out: Production of IL-10 by splenocytes, % (% of control), OvA/Alum, 1.0 μg/kg per os, OvA 0 μg/ml",100%
same,activity at 0.001 mg/kg,"read-out: Production of IL-10 by splenocytes, % (% of control), OvA/Alum, 1.0 μg/kg per os, OvA 10 μg/ml",128%
same,activity at 0.001 mg/kg,"read-out: Production of IL-10 by splenocytes, % (% of control), OvA/Alum, 1.0 μg/kg per os, OvA 25 μg/ml",112%
same,activity at 0.001 mg/kg,"read-out: Production of IL-10 by splenocytes, % (% of control), OvA/Alum, 1.0 μg/kg per os, OvA 50 μg/ml",110%
same,activity at 0.001 mg/kg,"read-out: Production of IL-10 by splenocytes, % (% of control), OvA/Alum, 1.0 μg/kg per os, OvA 100 μg/ml",109%
same,activity at 0.01 mg/kg,"read-out: Production of IL-10 by splenocytes, % (% of control), OvA/Alum, OvA 0 μg/ml",100%
same,activity at 0.01 mg/kg,"read-out: Production of IL-10 by splenocytes, % (% of control), OvA/Alum, OvA 10 μg/ml",138%
same,activity at 0.01 mg/kg,"read-out: Production of IL-10 by splenocytes, % (% of control), OvA/Alum, OvA 25 μg/ml",156%
same,activity at 0.01 mg/kg,"read-out: Production of IL-10 by splenocytes, % (% of control), OvA/Alum, OvA 50 μg/ml",197%
same,activity at 0.01 mg/kg,"read-out: Production of IL-10 by splenocytes, % (% of control), OvA/Alum, OvA 100 μg/ml",218%
same,activity at 0.0001 mg/kg,"read-out: Production of IL-10 by splenocytes, % (% of control), OvA/FA, 0.1 μg/kg per os, OvA 0 μg/ml",100%
same,activity at 0.0001 mg/kg,"read-out: Production of IL-10 by splenocytes, % (% of control), OvA/FA, 0.1 μg/kg per os, OvA 10 μg/ml",136%
same,activity at 0.0001 mg/kg,"read-out: Production of IL-10 by splenocytes, % (% of control), OvA/FA, 0.1 μg/kg per os, OvA 25 μg/ml",210%
same,activity at 0.0001 mg/kg,"read-out: Production of IL-10 by splenocytes, % (% of control), OvA/FA, 0.1 μg/kg per os, OvA 50 μg/ml",248%
same,activity at 0.0001 mg/kg,"read-out: Production of IL-10 by splenocytes, % (% of control), OvA/FA, 0.1 μg/kg per os, OvA 100 μg/ml",270%
same,activity at 0.001 mg/kg,"read-out: Production of IL-10 by splenocytes, % (% of control), OvA/FA, 1.0 μg/kg per os, OvA 0 μg/ml",100%
same,activity at 0.001 mg/kg,"read-out: Production of IL-10 by splenocytes, % (% of control), OvA/FA, 1.0 μg/kg per os, OvA 10 μg/ml",234%
same,activity at 0.001 mg/kg,"read-out: Production of IL-10 by splenocytes, % (% of control), OvA/FA, 1.0 μg/kg per os, OvA 25 μg/ml",241%
same,activity at 0.001 mg/kg,"read-out: Production of IL-10 by splenocytes, % (% of control), OvA/FA, 1.0 μg/kg per os, OvA 50 μg/ml",275%
same,activity at 0.001 mg/kg,"read-out: Production of IL-10 by splenocytes, % (% of control), OvA/FA, 1.0 μg/kg per os, OvA 100 μg/ml",317%
same,activity at 0.01 mg/kg,"read-out: Production of IL-10 by splenocytes, % (% of control), OvA/FA, OvA 0 μg/ml",100%
same,activity at 0.01 mg/kg,"read-out: Production of IL-10 by splenocytes, % (% of control), OvA/FA, OvA 10 μg/ml",133%
same,activity at 0.01 mg/kg,"read-out: Production of IL-10 by splenocytes, % (% of control), OvA/FA, OvA 25 μg/ml",174%
same,activity at 0.01 mg/kg,"read-out: Production of IL-10 by splenocytes, % (% of control), OvA/FA, OvA 50 μg/ml",216%
same,activity at 0.01 mg/kg,"read-out: Production of IL-10 by splenocytes, % (% of control), OvA/FA, OvA 100 μg/ml",250%
same,Production of IL-10 by splenocytes,"0.1 μg/kg i/p, OvA 0 μg/ml",2177.8 pg/mL
same,Production of IL-10 by splenocytes,"0.1 μg/kg i/p, OvA 10 μg/ml",1762.5 pg/mL
same,"Production of IL-10 by splenocytes, % (% of control)","0.1 μg/kg i/p, OvA 10 μg/ml",80.9%
same,Production of IL-10 by splenocytes,"0.1 μg/kg i/p, OvA 25 μg/ml",1946.1 pg/mL
same,"Production of IL-10 by splenocytes, % (% of control)","0.1 μg/kg i/p, OvA 25 μg/ml",89.4%
same,Production of IL-10 by splenocytes,"0.1 μg/kg i/p, OvA 50 μg/ml",1851.3 pg/mL
same,"Production of IL-10 by splenocytes, % (% of control)","0.1 μg/kg i/p, OvA 50 μg/ml",85.0%
same,Production of IL-10 by splenocytes,"0.1 μg/kg i/p, OvA 100 μg/ml",2189.5 pg/mL
same,"Production of IL-10 by splenocytes, % (% of control)","0.1 μg/kg i/p, OvA 100 μg/ml",100.5%
same,Production of IL-10 by splenocytes,"0.1 μg/kg per os, OvA 0 μg/ml",1351.1 pg/mL
same,Production of IL-10 by splenocytes,"0.1 μg/kg per os, OvA 10 μg/ml",1587.9 pg/mL
same,Production of IL-10 by splenocytes,"0.1 μg/kg per os, OvA 25 μg/ml",1419.5 pg/mL
same,Production of IL-10 by splenocytes,"0.1 μg/kg per os, OvA 50 μg/ml",1783.6 pg/mL
same,Production of IL-10 by splenocytes,"0.1 μg/kg per os, OvA 100 μg/ml",1741.5 pg/mL
same,Production of IL-10 by splenocytes,"1.0 μg/kg i/p, OvA 0 μg/ml",2035.7 pg/mL
same,Production of IL-10 by splenocytes,"1.0 μg/kg i/p, OvA 10 μg/ml",1758.9 pg/mL
same,"Production of IL-10 by splenocytes, % (% of control)","1.0 μg/kg i/p, OvA 10 μg/ml",86.4%
same,Production of IL-10 by splenocytes,"1.0 μg/kg i/p, OvA 25 μg/ml",1829.8 pg/mL
same,"Production of IL-10 by splenocytes, % (% of control)","1.0 μg/kg i/p, OvA 25 μg/ml",89.9%
same,Production of IL-10 by splenocytes,"1.0 μg/kg i/p, OvA 50 μg/ml",1584.7 pg/mL
same,"Production of IL-10 by splenocytes, % (% of control)","1.0 μg/kg i/p, OvA 50 μg/ml",77.8%
same,Production of IL-10 by splenocytes,"1.0 μg/kg i/p, OvA 100 μg/ml",1840.7 pg/mL
same,"Production of IL-10 by splenocytes, % (% of control)","1.0 μg/kg i/p, OvA 100 μg/ml",90.4%
same,Production of IL-10 by splenocytes,"1.0 μg/kg per os, OvA 0 μg/ml",1741.5 pg/mL
same,Production of IL-10 by splenocytes,"1.0 μg/kg per os, OvA 10 μg/ml",2220.9 pg/mL
